In ChEMBL document CHEMBL3885861, “Open TG-GATES”:

Organism: Rattus norvegicus
Test: Open TG-GATES - Regimen: Single
Format: toxicity, organism-based, Sprague-Dawley
Design: regimen Single, gender Male, age 6 weeks
Conditions: in vivo, ip, 450 mg/kg, route intraperitoneal injection, dose level Middle; for APTT / Bas / Eos / Fbg / Hb / Ht / Lym / MCH / MCHC / MCV / Mono / Neu / PT / Plat / RBC / Ret / WBC: tissue Blood; for KIDNEY_L / KIDNEY_R / KIDNEY_TOTAL: tissue Kidney; for LIVER: tissue Liver; for A/G / ALP / ALT / AST / BUN / CRE / Ca / Cl / DBIL / GLC / IP / K / LDH / Na / PL / RALB / TBIL / TC / TG / TP / gamma-GTP: tissue Plasma

`CCCCS(=N)(=O)CCC(N)C(=O)O` (configuration not stated) [BUTHIONINE SULFOXIMINE] showed a TERMINAL_BW (3 h) of 218.6 g, an APTT (3 h) of 16.6 s and a Bas (3 h) of 0%. It also gave an Eos (3 h) of 0.8%, a Fbg (3 h) of 216.4 mg/dL and a Hb (3 h) of 13.3 g/dL. For the same compound, the Ht (3 h) was 39.8%, the Lym (3 h) was 69% and the MCH (3 h) was 21.9 pg. It also gave an MCHC (3 h) of 33.3%, an MCV (3 h) of 65.7 fL and a Mono (3 h) of 7.8%. For the same compound, the Neu (3 h) was 22.2%, the PT (3 h) was 12.1 s and the Plat (3 h) was 112.2 x10_4/uL. The RBC (3 h) was 606.8 x10_4/ul, the Ret (3 h) was 8.5% and the WBC (3 h) was 79.6 x10_2/uL. For the same compound, the KIDNEY_L (3 h) was 1 g, the KIDNEY_R (3 h) was 1 g and the KIDNEY_TOTAL (3 h) was 2 g. For the same compound, the LIVER (3 h) was 10.2 g, the A/G (3 h) was 2.1 and the ALP (3 h) was 794 IU/L. The ALT (3 h) was 42.6 IU/L, the AST (3 h) was 72 IU/L and the BUN (3 h) was 14 mg/dL. It also gave a CRE (3 h) of 0.5 mg/dL, a Ca (3 h) of 11 mg/dL and a Cl (3 h) of 104 meq/L. The DBIL (3 h) was 0.062 mg/dL, the GLC (3 h) was 191.2 mg/dL and the IP (3 h) was 10.5 mg/dL. For the same compound, the K (3 h) was 4.5 meq/L, the LDH (3 h) was 93 IU/L and the Na (3 h) was 140.2 meq/L. It also gave a PL (3 h) of 137.4 mg/dL, an RALB (3 h) of 3.7 g/dL and a TBIL (3 h) of 0.3 mg/dL. For the same compound, the TC (3 h) was 71.4 mg/dL, the TG (3 h) was 62.8 mg/dL and the TP (3 h) was 5.5 g/dL. For the same compound, the gamma-GTP (3 h) was 1.8 IU/L, the TERMINAL_BW (6 h) was 217.2 g and the APTT (6 h) was 16.6 s. The Bas (6 h) was 0%, the Eos (6 h) was 0.8% and the Fbg (6 h) was 221.2 mg/dL. It also gave a Hb (6 h) of 13.4 g/dL, a Ht (6 h) of 40% and a Lym (6 h) of 57.6%. The MCH (6 h) was 22 pg, the MCHC (6 h) was 33.5% and the MCV (6 h) was 65.6 fL. The Mono (6 h) was 4.6%, the Neu (6 h) was 37.2% and the PT (6 h) was 11 s. For the same compound, the Plat (6 h) was 108.9 x10_4/uL, the RBC (6 h) was 609.8 x10_4/ul and the Ret (6 h) was 8.3%. The WBC (6 h) was 96.1 x10_2/uL, the KIDNEY_L (6 h) was 1 g and the KIDNEY_R (6 h) was 1 g. It also gave a KIDNEY_TOTAL (6 h) of 2 g, an LIVER (6 h) of 9.4 g and an A/G (6 h) of 2. It also gave an ALP (6 h) of 837.2 IU/L, an ALT (6 h) of 32 IU/L and an AST (6 h) of 68.8 IU/L. The BUN (6 h) was 11.4 mg/dL, the CRE (6 h) was 0.7 mg/dL and the Ca (6 h) was 10.8 mg/dL. For the same compound, the Cl (6 h) was 104.8 meq/L, the DBIL (6 h) was 0.016 mg/dL and the GLC (6 h) was 193.2 mg/dL. The IP (6 h) was 10 mg/dL, the K (6 h) was 4.6 meq/L and the LDH (6 h) was 100.6 IU/L. For the same compound, the Na (6 h) was 140.4 meq/L, the PL (6 h) was 129.8 mg/dL and the RALB (6 h) was 3.5 g/dL. For the same compound, the TBIL (6 h) was 0.3 mg/dL, the TC (6 h) was 73.2 mg/dL and the TG (6 h) was 43.2 mg/dL. For the same compound, the TP (6 h) was 5.3 g/dL, the gamma-GTP (6 h) was 1.2 IU/L and the TERMINAL_BW (9 h) was 210.3 g. For the same compound, the APTT (9 h) was 17 s, the Bas (9 h) was 0% and the Eos (9 h) was 0.8%. The Fbg (9 h) was 253 mg/dL, the Hb (9 h) was 13.3 g/dL and the Ht (9 h) was 40%. The Lym (9 h) was 63.2%, the MCH (9 h) was 21.4 pg and the MCHC (9 h) was 33.2%. It also gave an MCV (9 h) of 64.5 fL, a Mono (9 h) of 3.8% and a Neu (9 h) of 32.2%. For the same compound, the PT (9 h) was 11 s, the Plat (9 h) was 113.1 x10_4/uL and the RBC (9 h) was 620 x10_4/ul. It also gave a Ret (9 h) of 8.4%, a WBC (9 h) of 93.4 x10_2/uL and a KIDNEY_L (9 h) of 1 g. It also gave a KIDNEY_R (9 h) of 1 g, a KIDNEY_TOTAL (9 h) of 1.9 g and an LIVER (9 h) of 8.4 g. The A/G (9 h) was 2.1, the ALP (9 h) was 759.2 IU/L and the ALT (9 h) was 31.2 IU/L. The AST (9 h) was 61 IU/L, the BUN (9 h) was 11.8 mg/dL and the CRE (9 h) was 0.6 mg/dL. The Ca (9 h) was 11 mg/dL, the Cl (9 h) was 107 meq/L and the DBIL (9 h) was 0.01 mg/dL. For the same compound, the GLC (9 h) was 196.2 mg/dL, the IP (9 h) was 9.6 mg/dL and the K (9 h) was 4.8 meq/L. For the same compound, the LDH (9 h) was 79.4 IU/L, the Na (9 h) was 139.2 meq/L and the PL (9 h) was 144.2 mg/dL. For the same compound, the RALB (9 h) was 3.7 g/dL, the TBIL (9 h) was 0.3 mg/dL and the TC (9 h) was 84.4 mg/dL. It also gave a TG (9 h) of 25 mg/dL, a TP (9 h) of 5.5 g/dL and a gamma-GTP (9 h) of 1.2 IU/L. It also gave a TERMINAL_BW (24 h) of 229.8 g, an APTT (24 h) of 16.6 s and a Bas (24 h) of 0%. It also gave an Eos (24 h) of 1.2%, a Fbg (24 h) of 254 mg/dL and a Hb (24 h) of 13.2 g/dL. It also gave a Ht (24 h) of 39.6%, a Lym (24 h) of 70.8% and an MCH (24 h) of 21.4 pg. For the same compound, the MCHC (24 h) was 33.2%, the MCV (24 h) was 64.4 fL and the Mono (24 h) was 9.4%. For the same compound, the Neu (24 h) was 18.8%, the PT (24 h) was 11.5 s and the Plat (24 h) was 126.4 x10_4/uL. It also gave an RBC (24 h) of 616.6 x10_4/ul, a Ret (24 h) of 8.8% and a WBC (24 h) of 85.5 x10_2/uL. The KIDNEY_L (24 h) was 1 g, the KIDNEY_R (24 h) was 1.1 g and the KIDNEY_TOTAL (24 h) was 2.1 g. It also gave an LIVER (24 h) of 11.1 g, an A/G (24 h) of 1.8 and an ALP (24 h) of 1015.4 IU/L. The ALT (24 h) was 30.2 IU/L, the AST (24 h) was 60 IU/L and the BUN (24 h) was 19.2 mg/dL. For the same compound, the CRE (24 h) was 0.5 mg/dL, the Ca (24 h) was 11.1 mg/dL and the Cl (24 h) was 104.6 meq/L. For the same compound, the DBIL (24 h) was 0.008 mg/dL, the GLC (24 h) was 196.6 mg/dL and the IP (24 h) was 8.3 mg/dL. For the same compound, the K (24 h) was 4.4 meq/L, the LDH (24 h) was 98 IU/L and the Na (24 h) was 140 meq/L. It also gave a PL (24 h) of 149.4 mg/dL, an RALB (24 h) of 3.7 g/dL and a TBIL (24 h) of 0.3 mg/dL. It also gave a TC (24 h) of 80.6 mg/dL, a TG (24 h) of 95.2 mg/dL and a TP (24 h) of 5.8 g/dL. The gamma-GTP (24 h) was 1.6 IU/L.
